Test results from PMC5218480 (PLoS ONE, 2017).

Tested on: MV-4-11 cells
Assay: Gene expression microarray analysis (Affymetrix PrimeView) and GSEA
Assay type: cell-based, human
Set-up: RFU PODN (11730768_x_at) / Fold change /veh PODN (11730768_x_at) / RFU LINC00158 (11744669_a_at) / Fold change /veh LINC00158 (11744669_a_at) / RFU DUSP10 (11751237_a_at) / Fold change /veh DUSP10 (11751237_a_at) / RFU ID3 (11757404_x_at) / Fold change /veh ID3 (11757404_x_at) / RFU PLEKHG5 (11737974_s_at) / Fold change /veh PLEKHG5 (11737974_s_at) / RFU LRRC4B (11730491_at) / Fold change /veh LRRC4B (11730491_at) / RFU GIMAP4 (11747438_a_at) / Fold change /veh GIMAP4 (11747438_a_at) / RFU KRT8 (11758183_x_at) / Fold change /veh KRT8 (11758183_x_at) / RFU CNN1 (11734310_a_at) / Fold change /veh CNN1 (11734310_a_at) / RFU VPS37D (11726825_at) / Fold change /veh VPS37D (11726825_at) / RFU C10orf10 (11716522_x_at) / Fold change /veh C10orf10 (11716522_x_at) / RFU KIR2DL2 /// KIR2DL4 /// KIR2DL5A /// KIR2DL5B /// KIR2DS1 /// KIR2DS2 /// KIR2DS3 /// KIR2DS4 /// KIR3DL3 /// KIR3DL3 /// KIR3DS1 (11738374_at) / Fold change /veh KIR2DL2 /// KIR2DL4 /// KIR2DL5A /// KIR2DL5B /// KIR2DS1 /// KIR2DS2 /// KIR2DS3 /// KIR2DS4 /// KIR3DL3 /// KIR3DL3 /// KIR3DS1 (11738374_at) / RFU C1QL1 (11718748_at) / Fold change /veh C1QL1 (11718748_at) / RFU TMPRSS4 (11747572_a_at) / Fold change /veh TMPRSS4 (11747572_a_at) / RFU HAMP (11756126_x_at) / Fold change /veh HAMP (11756126_x_at) / RFU RNFT2 (11725882_a_at) / Fold change /veh RNFT2 (11725882_a_at) / RFU NR4A2 (11747474_a_at) / Fold change /veh NR4A2 (11747474_a_at) / RFU ABCC12 (11746883_a_at) / Fold change /veh ABCC12 (11746883_a_at) / RFU TMEM136 (11760407_x_at) / Fold change /veh TMEM136 (11760407_x_at) / RFU CLDN22 /// WWC2 (11732394_at) / Fold change /veh CLDN22 /// WWC2 (11732394_at) / RFU HLA-DPB1 (11760878_x_at) / Fold change /veh HLA-DPB1 (11760878_x_at) / RFU SPINT1 (11716480_a_at) / Fold change /veh SPINT1 (11716480_a_at) / RFU GAP43 (11754022_s_at) / Fold change /veh GAP43 (11754022_s_at) / RFU A4GNT (11735810_at) / Fold change /veh A4GNT (11735810_at) / RFU PRB3 (11715151_x_at) / Fold change /veh PRB3 (11715151_x_at) / RFU TUBB4B (11761932_at) / Fold change /veh TUBB4B (11761932_at) / RFU CAPN14 (11732068_a_at) / Fold change /veh CAPN14 (11732068_a_at) / RFU TMCC2 (11721928_a_at) / Fold change /veh TMCC2 (11721928_a_at) / RFU IRGQ (11745062_a_at) / Fold change /veh IRGQ (11745062_a_at) / RFU FAM174B (11720279_a_at) / Fold change /veh FAM174B (11720279_a_at) / RFU TMPRSS4 (11748680_a_at) / Fold change /veh TMPRSS4 (11748680_a_at) / RFU FAM212B (11763350_a_at) / Fold change /veh FAM212B (11763350_a_at) / RFU PLEKHG5 (11743358_a_at) / Fold change /veh PLEKHG5 (11743358_a_at) / RFU ZSCAN30 (11745921_a_at) / Fold change /veh ZSCAN30 (11745921_a_at) / RFU CMKLR1 (11741424_a_at) / Fold change /veh CMKLR1 (11741424_a_at) / RFU LOC101060620 /// MAPK8IP1 (11723275_at) / Fold change /veh LOC101060620 /// MAPK8IP1 (11723275_at) / RFU SPTSSB (11747773_x_at) / Fold change /veh SPTSSB (11747773_x_at) / RFU PRSS12 (11739890_at) / Fold change /veh PRSS12 (11739890_at) / RFU BIN1 (11741810_x_at) / Fold change /veh BIN1 (11741810_x_at) / RFU WNT11 (11732464_a_at) / Fold change /veh WNT11 (11732464_a_at) / RFU C10orf10 (11716521_a_at) / Fold change /veh C10orf10 (11716521_a_at) / RFU C5orf56 (11738089_at) / Fold change /veh C5orf56 (11738089_at) / RFU CYB561 (11721691_x_at) / Fold change /veh CYB561 (11721691_x_at) / RFU ANKRD19P (11752326_a_at) / Fold change /veh ANKRD19P (11752326_a_at) / RFU OR2T12 /// OR2T33 /// OR2T8 (11738714_s_at) / Fold change /veh OR2T12 /// OR2T33 /// OR2T8 (11738714_s_at) / RFU VCAN (11748164_a_at) / Fold change /veh VCAN (11748164_a_at) / RFU JSRP1 (11732532_at) / Fold change /veh JSRP1 (11732532_at) / RFU KRTAP10-11 (11738290_x_at) / Fold change /veh KRTAP10-11 (11738290_x_at) / RFU MYO3A (11730013_a_at) / Fold change /veh MYO3A (11730013_a_at) / RFU EBF3 (11725865_a_at) / Fold change /veh EBF3 (11725865_a_at) / RFU CAMK2N1 (11719241_x_at) / Fold change /veh CAMK2N1 (11719241_x_at) / RFU C5orf56 (11738088_a_at) / Fold change /veh C5orf56 (11738088_a_at) / RFU OLFML3 (11715873_a_at) / Fold change /veh OLFML3 (11715873_a_at) / RFU LOC100653217 /// NTM (11731650_a_at) / Fold change /veh LOC100653217 /// NTM (11731650_a_at) / RFU MAPK11 (11762145_a_at) / Fold change /veh MAPK11 (11762145_a_at) / RFU FIZ1 (11724087_x_at) / Fold change /veh FIZ1 (11724087_x_at) / RFU OASL (11726364_x_at) / Fold change /veh OASL (11726364_x_at) / RFU SOX15 (11748057_x_at) / Fold change /veh SOX15 (11748057_x_at) / RFU CD79A (11719716_a_at) / Fold change /veh CD79A (11719716_a_at) / RFU HIST1H1D (11736915_at) / Fold change /veh HIST1H1D (11736915_at) / RFU CASKIN2 (11723855_a_at) / Fold change /veh CASKIN2 (11723855_a_at) / RFU LOC730098 (11760151_x_at) / Fold change /veh LOC730098 (11760151_x_at) / RFU OR4N2 (11742367_at) / Fold change /veh OR4N2 (11742367_at) / RFU PRRT2 (11749266_a_at) / Fold change /veh PRRT2 (11749266_a_at) / RFU SNX32 (11753110_a_at) / Fold change /veh SNX32 (11753110_a_at) / RFU CDHR5 (11726645_a_at) / Fold change /veh CDHR5 (11726645_a_at) / RFU RCAN1 (11760418_a_at) / Fold change /veh RCAN1 (11760418_a_at) / RFU FAM167A (11723789_a_at) / Fold change /veh FAM167A (11723789_a_at) / RFU FAM26E (11764081_at) / Fold change /veh FAM26E (11764081_at) / RFU ISYNA1 (11749810_s_at) / Fold change /veh ISYNA1 (11749810_s_at) / RFU ACY1 (11761880_at) / Fold change /veh ACY1 (11761880_at) / RFU 11764098_at / Fold change /veh 11764098_at / RFU SAMD14 (11745864_x_at) / Fold change /veh SAMD14 (11745864_x_at) / RFU NPB (11741838_a_at) / Fold change /veh NPB (11741838_a_at) / RFU TMPRSS6 (11731388_a_at) / Fold change /veh TMPRSS6 (11731388_a_at) / RFU KRTAP10-2 (11738614_at) / Fold change /veh KRTAP10-2 (11738614_at) / RFU ARHGAP8 /// PRR5-ARHGAP8 (11727945_x_at) / Fold change /veh ARHGAP8 /// PRR5-ARHGAP8 (11727945_x_at) / RFU KRTAP5-7 /// NADSYN1 (11734609_at) / Fold change /veh KRTAP5-7 /// NADSYN1 (11734609_at) / RFU RASL12 (11751679_a_at) / Fold change /veh RASL12 (11751679_a_at) / RFU CDKN2B (11736163_a_at) / Fold change /veh CDKN2B (11736163_a_at) / RFU PRF1 (11729649_at) / Fold change /veh PRF1 (11729649_at) / RFU, ZNF638 /// ZNF638-IT1 / Fold change vs veh, ZNF638 /// ZNF638-IT1 / RFU, PANK3 / Fold change vs veh, PANK3 / RFU, SH3YL1 / Fold change vs veh, SH3YL1 / RFU, ZEB2 / Fold change vs veh, ZEB2 / RFU, NRIP1 / Fold change vs veh, NRIP1 / RFU, PTTG1IP / Fold change vs veh, PTTG1IP / RFU, CAPN2 / Fold change vs veh, CAPN2 / RFU, MED14 / Fold change vs veh, MED14 / RFU, SNORA58 / Fold change vs veh, SNORA58 / RFU, C1orf63 / Fold change vs veh, C1orf63 / RFU, LRRFIP1 / Fold change vs veh, LRRFIP1 / RFU, NDUFAF7 / Fold change vs veh, NDUFAF7 / RFU, SLC12A2 / Fold change vs veh, SLC12A2 / RFU, IBTK / Fold change vs veh, IBTK / RFU, ESF1 / Fold change vs veh, ESF1 / Fold change vs veh, TMEM50B / RFU, TAOK1 / Fold change vs veh, TAOK1 / RFU, ACBD3 / Fold change vs veh, ACBD3 / RFU, TMA16 / Fold change vs veh, TMA16 / RFU, RWDD3 / Fold change vs veh, RWDD3 / RFU, BCAT1 / Fold change vs veh, BCAT1 / RFU, EDEM3 / Fold change vs veh, EDEM3 / RFU, TMEM33 / Fold change vs veh, TMEM33 / RFU, WDR75 / Fold change vs veh, WDR75 / RFU, AHCTF1 / Fold change vs veh, AHCTF1 / RFU, TFRC / Fold change vs veh, TFRC / RFU, ZDHHC17 / Fold change vs veh, ZDHHC17 / RFU, NOM1 / Fold change vs veh, NOM1 / RFU, ARL8B / Fold change vs veh, ARL8B / RFU, ZBTB11 / Fold change vs veh, ZBTB11 / RFU, TAMM41 / Fold change vs veh, TAMM41 / RFU, KIAA1704 /// LOC100996395 / Fold change vs veh, KIAA1704 /// LOC100996395 / RFU, ING1 / Fold change vs veh, ING1 / RFU, TRMT61B / Fold change vs veh, TRMT61B / RFU, FUBP3 / Fold change vs veh, FUBP3 / RFU, TP53 / Fold change vs veh, TP53 / RFU, TNKS2 / Fold change vs veh, TNKS2 / RFU, ZFP14 / Fold change vs veh, ZFP14 / RFU, ACTR2 / Fold change vs veh, ACTR2 / RFU, PPP3R1 / Fold change vs veh, PPP3R1 / RFU, PIK3R1 / Fold change vs veh, PIK3R1 / RFU, HNRNPA1 / Fold change vs veh, HNRNPA1 / RFU, RNF170 / Fold change vs veh, RNF170 / RFU, ZNF28 / Fold change vs veh, ZNF28 / RFU, RNGTT / Fold change vs veh, RNGTT / RFU, OGT / Fold change vs veh, OGT / RFU, BRD1 / Fold change vs veh, BRD1 / RFU, MARS / Fold change vs veh, MARS / RFU, ZNF655 / Fold change vs veh, ZNF655 / RFU, FAHD1 / Fold change vs veh, FAHD1 / RFU, BDP1 / Fold change vs veh, BDP1 / RFU, LRRCC1 / Fold change vs veh, LRRCC1 / RFU, ARID1A / Fold change vs veh, ARID1A / RFU, ZNF146 / Fold change vs veh, ZNF146 / RFU, ZNF330 / Fold change vs veh, ZNF330 / RFU, GPN3 / Fold change vs veh, GPN3 / RFU, C9orf123 / Fold change vs veh, C9orf123 / RFU, N4BP2L2 / Fold change vs veh, N4BP2L2 / RFU, ARFIP1 / Fold change vs veh, ARFIP1 / RFU, FAM179B / Fold change vs veh, FAM179B / RFU, BCL10 / Fold change vs veh, BCL10 / RFU, UHRF1BP1L / Fold change vs veh, UHRF1BP1L / RFU, BET1 / Fold change vs veh, BET1 / RFU, CNOT2 / Fold change vs veh, CNOT2 / RFU, ZNF268 / Fold change vs veh, ZNF268 / Fold change vs veh, ZNF507 / RFU, DGCR2 / Fold change vs veh, DGCR2 / RFU, WDSUB1 / Fold change vs veh, WDSUB1 / Fold change vs veh, HSP90B1 /// MIR3652 / RFU, ADSS / Fold change vs veh, ADSS / RFU, GK / Fold change vs veh, GK / RFU, ZNF148 / Fold change vs veh, ZNF148 / RFU, TAF9 / Fold change vs veh, TAF9 / RFU, SLC1A5 / Fold change vs veh, SLC1A5 / RFU, SLMO2 / Fold change vs veh, SLMO2 / RFU, ABCC4 / Fold change vs veh, ABCC4 / RFU, LOC101060439 /// RAP1B / Fold change vs veh, LOC101060439 /// RAP1B / RFU, RFX7 / Fold change vs veh, RFX7 / RFU, GTPBP10 / Fold change vs veh, GTPBP10 / RFU, CNEP1R1 / Fold change vs veh, CNEP1R1 / RFU, BIVM-ERCC5 /// ERCC5 / Fold change vs veh, BIVM-ERCC5 /// ERCC5 / RFU, ILF3 / Fold change vs veh, ILF3 / RFU 11762660_at / Fold change /veh 11762660_at / RFU VCAN (11757783_s_at) / Fold change /veh VCAN (11757783_s_at) / RFU DDX43 (11728927_at) / Fold change /veh DDX43 (11728927_at) / RFU KRT8 (11758188_x_at) / Fold change /veh KRT8 (11758188_x_at) / RFU NKD1 (11759106_at) / Fold change /veh NKD1 (11759106_at) / RFU SRD5A1 (11742802_a_at) / Fold change /veh SRD5A1 (11742802_a_at) / RFU TPSAB1 /// TPSB2 (11721975_s_at) / Fold change /veh TPSAB1 /// TPSB2 (11721975_s_at) / RFU GSTM3 (11746129_a_at) / Fold change /veh GSTM3 (11746129_a_at) / RFU IL23R (11737362_x_at) / Fold change /veh IL23R (11737362_x_at) / RFU TMEM51 (11727254_a_at) / Fold change /veh TMEM51 (11727254_a_at) / RFU PIWIL2 (11732686_x_at) / Fold change /veh PIWIL2 (11732686_x_at) / RFU ORM1 (11744905_x_at) / Fold change /veh ORM1 (11744905_x_at) / RFU CCDC152 (11743942_at) / Fold change /veh CCDC152 (11743942_at) / RFU ECM1 (11717891_a_at) / Fold change /veh ECM1 (11717891_a_at) / RFU IL23R (11748794_a_at) / Fold change /veh IL23R (11748794_a_at) / RFU TNFAIP8L3 (11732012_x_at) / Fold change /veh TNFAIP8L3 (11732012_x_at) / RFU MBOAT4 (11741988_at) / Fold change /veh MBOAT4 (11741988_at) / RFU 11764193_at / Fold change /veh 11764193_at / RFU TMEM53 (11763286_at) / Fold change /veh TMEM53 (11763286_at) / RFU MAGEB2 (11727129_at) / Fold change /veh MAGEB2 (11727129_at) / RFU TMEM200A (11744735_a_at) / Fold change /veh TMEM200A (11744735_a_at) / RFU CCDC152 (11751479_a_at) / Fold change /veh CCDC152 (11751479_a_at) / RFU FAM211A (11726209_a_at) / Fold change /veh FAM211A (11726209_a_at) / RFU RGS16 (11746705_a_at) / Fold change /veh RGS16 (11746705_a_at) / RFU VCAN (11755009_s_at) / Fold change /veh VCAN (11755009_s_at) / RFU RHOB (11743442_s_at) / Fold change /veh RHOB (11743442_s_at) / RFU RGS16 (11720943_a_at) / Fold change /veh RGS16 (11720943_a_at) / RFU RGS16 (11720944_at) / Fold change /veh RGS16 (11720944_at) / RFU, VPS4B / Fold change vs veh, VPS4B / RFU, CREB1 / Fold change vs veh, CREB1 / RFU, DNAJC13 / Fold change vs veh, DNAJC13 / RFU, GNAQ / Fold change vs veh, GNAQ / RFU, CDK5R1 / Fold change vs veh, CDK5R1 / RFU, ZRANB3 / Fold change vs veh, ZRANB3 / RFU, CUL4A / Fold change vs veh, CUL4A / RFU, CCNY / Fold change vs veh, CCNY / RFU, UFL1 / Fold change vs veh, UFL1 / RFU, COG3 / Fold change vs veh, COG3 / RFU, DIAPH2 / Fold change vs veh, DIAPH2 / RFU, SKA2 / Fold change vs veh, SKA2 / RFU, AFF3 / Fold change vs veh, AFF3 / RFU, LMF1 / Fold change vs veh, LMF1 / RFU, IPO11 / Fold change vs veh, IPO11 / RFU, DFFB / Fold change vs veh, DFFB / RFU, FOXP1 / Fold change vs veh, FOXP1 / RFU, CARD8 / Fold change vs veh, CARD8 / RFU, STRN3 / Fold change vs veh, STRN3 / RFU, ADK / Fold change vs veh, ADK / RFU, RASSF2 / Fold change vs veh, RASSF2 / RFU, WIPF1 / Fold change vs veh, WIPF1 / RFU, LARP1B / Fold change vs veh, LARP1B / RFU, RASA1 / Fold change vs veh, RASA1 / RFU, RB1 / Fold change vs veh, RB1 / RFU, PPFIA1 / Fold change vs veh, PPFIA1 / RFU, MAT2A / Fold change vs veh, MAT2A / RFU, CCT5 / Fold change vs veh, CCT5 / RFU, WDR92 / Fold change vs veh, WDR92 / RFU, CUX1 / Fold change vs veh, CUX1 / RFU, TTC7A / Fold change vs veh, TTC7A / RFU, TMEM135 / Fold change vs veh, TMEM135 / RFU, DEPTOR / Fold change vs veh, DEPTOR / RFU, CPM / Fold change vs veh, CPM / RFU, DNAJB6 / Fold change vs veh, DNAJB6 / RFU, CACNA2D3 / Fold change vs veh, CACNA2D3 / RFU, DTX4 / Fold change vs veh, DTX4 / RFU, TFCP2 / Fold change vs veh, TFCP2 / RFU, GMCL1 /// GMCL1P1 / Fold change vs veh, GMCL1 /// GMCL1P1 / RFU, AEBP2 / Fold change vs veh, AEBP2 / RFU, SNHG1 /// SNORD22 /// SNORD25 /// SNORD26 /// SNORD27 /// SNORD28 /// SNORD29 /// SNORD31 / Fold change vs veh, SNHG1 /// SNORD22 /// SNORD25 /// SNORD26 /// SNORD27 /// SNORD28 /// SNORD29 /// SNORD31 / Fold change (Aza/veh), C12orf56 (ProbeSet 11735607_a_at) / Fold change (ACY-1035/veh), C12orf56 (ProbeSet 11735607_a_at) / Fold change (Aza/veh), FGFR1OP (ProbeSet 11751329_s_at) / Fold change (ACY-1035/veh), FGFR1OP (ProbeSet 11751329_s_at) / Fold change (Aza/veh), VPS36 (ProbeSet 11739960_a_at) / Fold change (ACY-1035/veh), VPS36 (ProbeSet 11739960_a_at) / RFU SYPL1 (11715823_x_at) / Fold change /veh SYPL1 (11715823_x_at) / RFU IGFBP7 (11715501_s_at) / Fold change /veh IGFBP7 (11715501_s_at) / RFU REEP3 (11722064_at) / Fold change /veh REEP3 (11722064_at) / RFU IGLL1 (11728026_x_at) / Fold change /veh IGLL1 (11728026_x_at): dose or concentration left out as unconfirmed
Conditions: MV-4-11 cells, 48 hours

## Nc1ncn([C@@H]2O[C@H](CO)[C@@H](O)[C@H]2O)c(=O)n1 [azacitidine]
  RFU SNX32 (11753110_a_at): 6.16 RFU
